Target: T1, Tyrosine-protein phosphatase non-receptor type 1 (Homo sapiens, UniProt P18031)
T1 sequence (P18031 whole entry): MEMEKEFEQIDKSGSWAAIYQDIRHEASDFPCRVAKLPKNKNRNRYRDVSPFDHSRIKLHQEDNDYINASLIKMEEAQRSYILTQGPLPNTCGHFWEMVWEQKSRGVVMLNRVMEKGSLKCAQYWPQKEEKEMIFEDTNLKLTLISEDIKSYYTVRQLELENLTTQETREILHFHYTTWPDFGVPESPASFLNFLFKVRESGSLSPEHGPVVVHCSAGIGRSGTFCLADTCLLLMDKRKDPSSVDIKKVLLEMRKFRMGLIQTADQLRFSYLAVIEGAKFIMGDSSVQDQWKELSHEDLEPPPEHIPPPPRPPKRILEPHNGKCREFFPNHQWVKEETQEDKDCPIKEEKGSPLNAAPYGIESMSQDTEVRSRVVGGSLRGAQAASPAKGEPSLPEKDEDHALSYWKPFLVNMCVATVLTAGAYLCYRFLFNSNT
Experiment: Inhibition of protein tyrosine phosphatase 1B

IC50 [µM] | Compound
118 | BrCc1cc(Br)c2cc(NBr)c(Br)cc2c1Br
127 | BrCc1cc2cc(Br)c(NBr)cc2c(Br)c1Br
3.82 | COc1cc(C(=O)c2c(Br)c(Br)c(OC)c(OC)c2Br)c(Br)c(Br)c1OC
185 | BrCc1cc(Br)c2cc(NBr)c(Br)c(Br)c2c1
5.78 | Cc1cc(C)c(Oc2cc(Br)cc(Br)c2Br)c(Br)c1

Reference: ChEMBL document CHEMBL1287683, “Highly brominated metabolites from marine red alga Laurencia similis inhibit protein tyrosine phosphatase 1B” (Bioorg Med Chem Lett, 2010)
